Values after ≈ are worked out from the molar mass of the structure shown. Read-outs that look alike come from different tables or passages of the source.
Experiments:
[1] = RAW264.7 cytotoxicity (CellTiter-Glo); assay type: cell-based, murine; settings: mouse, RAW264.7 macrophage-like cells
Experimental: The RAW264.7 cell line was cultured in DMEM supplemented with 10% FBS, 2-mM L-glutamine, 100-U/mL penicillin and 100-µg/mL streptomycin at 37°C and 5% CO2. Cells were seeded on black, clear-bottom 96-well plates at 2.5 × 10^5 cells/mL. Test compounds and reference compounds (BDQ and tamoxifen) were added in nine twofold serial dilutions in 100% DMSO with a top concentration of 25 µM. The plate setup included high (no growth inhibition) and low (100% growth inhibition) controls in columns 12 and 1, respectively. Medium without cell suspension was added to the low control wells. Final DMSO concentration reached 1% for test and control wells. Plates were incubated for 60 hours at 37°C and 5% CO2. Before adding the readout reagent, plates were equilibrated at room temperature for 30 min. The CellTiter-Glo version 2.0 Assay (Promega, cat. #G7572) was then added to test wells in a 1:1 ratio and mixed for 2 min on an orbital shaker. The plate was incubated for 10 min at RT to stabilize the luminescent signal. The luminescence was recorded using Glomax Discover microplate reader (Promega). Cell viability was determined by normalization of the recorded signal and establishment of the 50% cytotoxicity concentration based on the non-linear regression curve analysis (GraphPad Prism version 9). The assay was performed in duplicate in two independent experiments.

[2] = tested on: Mtb H37Ra^lux; assay: microbe, parasite or virus in culture; assay type: cell-based, Mycobacterium tuberculosis; settings: for MIC50: Mycobacterium tuberculosis, H37RA
[3] = tested on: Mtb H37Ra^lux in RAW264.7 murine macrophages; assay: microbe, parasite or virus in culture; assay type: cell-based, Mycobacterium tuberculosis; settings: for MIC50: Mycobacterium tuberculosis, H37RA, 60 h
[4] = biological target: Mycobacterium tuberculosis mycothione reductase (MtrMtb) (Mycobacterium tuberculosis, UniProt P9WHH3); assay: MtrMtb luminescence-coupled enzymatic assay, confirmation screen (11-point dose-response); assay type: biochemical
[5] = sulfonylamine series, fragment molecules, reference compounds
[6] = read-out: MIC50 (µM) Mtb H37Ra^lux
[7] = read-out: RAW264.7 MIC50 (µM) (Mtb H37Ra^lux)
[8] = sulfonylamine series, fragment molecules, reference compounds, read-out: IC50 (µM) MtrMtb
[9] = read-out: RAW264.7 MIC50 (Mtb H37Ra^lux)
[10] = morpholine series, acute cellular toxicity, unit not in this head
[11] = read-out: MIC50 (Mtb H37Ra^lux)
[12] = morpholine series, average IC50 in the confirmation screen (dose-response), unit not in this head, µM, read-out: qIC50 (MtrMtb)

Mycobacterium tuberculosis mycothione reductase (MtrMtb), sequence (P9WHH3 whole entry, the tested form may be a part): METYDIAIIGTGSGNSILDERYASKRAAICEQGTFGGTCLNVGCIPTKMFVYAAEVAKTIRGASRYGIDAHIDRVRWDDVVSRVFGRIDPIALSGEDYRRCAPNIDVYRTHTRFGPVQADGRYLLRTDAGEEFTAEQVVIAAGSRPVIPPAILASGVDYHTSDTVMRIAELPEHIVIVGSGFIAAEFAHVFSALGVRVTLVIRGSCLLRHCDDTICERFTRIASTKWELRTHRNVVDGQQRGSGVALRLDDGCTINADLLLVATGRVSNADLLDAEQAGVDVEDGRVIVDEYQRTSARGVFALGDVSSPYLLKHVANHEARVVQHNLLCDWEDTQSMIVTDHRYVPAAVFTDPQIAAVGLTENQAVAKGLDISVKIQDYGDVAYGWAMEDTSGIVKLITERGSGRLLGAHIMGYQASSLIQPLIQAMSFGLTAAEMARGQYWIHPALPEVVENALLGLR

Row | Structure (SMILES) | CC50 at 60 h [1, 5] [µM] | MIC50 [2, 6] [µM] | MIC50 [3, 7] [µM] | IC50 [4, 8] [µM] | MIC50 [3, 9] [µM] | CC50 at 60 h [1, 10] [µM] | MIC50 [2, 11] [µM] | intracellular activity in macrophage infection assay, in words [3] | anti-mycobacterial activity in whole-cell assay (Mtb H37Ra^lux MIC50), in words [2] | IC50 [4, 12] [µM]
1 | COc1nc2ccc(Br)cc2cc1[C@@H](c1ccccc1)[C@@](O)(CCN(C)C)c1cccc2ccccc12 [Bedaquiline, reference compound] | > 50 | 0.01 (≈ 0.00556 µg/mL) | – | – | – | – | – | – | – | –
2 | CCNc1cc(Oc2ccc(NS(=O)(=O)c3ccc(C)cc3)c(C(=O)O)c2)ccc1NS(=O)(=O)c1ccc(C)cc1 [Respiri-1031] | – | > 25 | > 25 | 2.16 | – | – | – | – | – | –
3 | CNc1cc(Oc2ccc(NS(=O)(=O)c3ccc(C)cc3)c(C(=O)O)c2)ccc1NS(=O)(=O)c1ccc(C)cc1 [Respiri-1075] | – | > 25 | > 25 | – | – | – | – | – | – | –
4 | COc1cccc(-c2nc(N3CCOC[C@@H]3C)nc3c2CCNCC3)c1 [Respiri-1076] | – | – | – | – | > 25 | > 25 | > 25 | – | – | –
5 | C[C@H]1COCCN1c1nc2c(c(-c3ccc(F)cc3)n1)CCNCC2 [Respiri-1077] | – | – | – | – | > 25 | > 25 | > 25 | – | – | –
6 | C[C@H]1COCCN1c1nc2c(c(-c3ccc(Cl)cc3)n1)CCNCC2 [Respiri-1078] | – | – | – | – | 14.1 (≈ 5.05 µg/mL) | 13.7 | 11.9 (≈ 4.26 µg/mL) | Intracellular activity was detected | activity | 4.47
7 | C[C@H]1COCCN1c1nc2c(c(-c3cc4ccccc4o3)n1)CCNCC2 [Respiri-1079] | – | – | – | – | 12.2 (≈ 4.44 µg/mL) | 11 | 5.7 (≈ 2.08 µg/mL) | Intracellular activity was detected | activity | 1.99
8 | C[C@H]1COCCN1c1nc2c(c(-c3ccc4c(c3)OCO4)n1)CCNCC2 [Respiri-1080] | – | – | – | – | > 25 | > 5 | > 25 | – | – | 5.98
9 | C[C@H]1COCCN1c1nc2c(c(-c3ccc4ncccc4c3)n1)CCNCC2 [Respiri-1081] | – | – | – | – | > 25 | > 25 | > 25 | – | – | 3.75
10 | C[C@H]1COCCN1c1nc2c(c(-c3ccc4ccccc4c3)n1)CCNCC2 [Respiri-1082] | – | – | – | – | 7.16 (≈ 2.68 µg/mL) | 9.69 | 4.02 (≈ 1.51 µg/mL) | Intracellular activity was detected | activity | 3.03
11 | C[C@H]1COCCN1c1nc2c(c(-c3ccnc4ccccc34)n1)CCNCC2 [Respiri-1083] | – | – | – | – | > 25 | > 25 | > 25 | – | – | 2.34
12 | C[C@H]1COCCN1c1cc(-c2cc3ccccc3s2)c2c(n1)CCNCC2 [Respiri-1084] | – | – | – | – | 10.2 (≈ 3.88 µg/mL) | 11.9 | > 25 | Intracellular activity was detected | – | 2.88
13 | C[C@H]1COCCN1c1nc2c(c(-c3csc4ccccc34)n1)CCNCC2 [Respiri-1093] | – | – | – | – | > 25 | > 25 | 9.94 (≈ 3.78 µg/mL) | – | activity | 6.22
14 | CCCNc1cc(Oc2ccc(NS(=O)(=O)c3ccc(C)cc3)c(C(=O)O)c2)ccc1NS(=O)(=O)c1ccc(C)cc1 [Respiri-1179] | > 50 | > 25 | > 25 | 1.13 | – | – | – | – | – | –
15 | CCN(CC)c1cc(Oc2ccc(NS(=O)(=O)c3ccc(C)cc3)c(C(=O)O)c2)ccc1NS(=O)(=O)c1ccc(C)cc1 [Respiri-1180] | > 50 | > 25 | – | 2.38 | – | – | – | – | – | –
16 | CCCCNc1cc(Oc2ccc(NS(=O)(=O)c3ccc(C)cc3)c(C(=O)O)c2)ccc1NS(=O)(=O)c1ccc(C)cc1 [Respiri-1181] | > 50 | > 25 | > 25 | 1.66 | – | – | – | – | – | –
17 | O=C1C=CC(=O)N1Cc1ccc2c(c1)OCO2 [Respiri-1208] | 15.2 | > 25 | – | 4.83 | – | – | – | – | – | –
18 | CN1C(=O)C2N=CNC2N(C)C1=O (centres unmarked) [Respiri-1209] | > 50 | > 25 | > 25 | 5.63 | – | – | – | – | – | –
19 | Cn1ccnc1C(=O)c1nccn1C [Respiri-1210] | > 50 | > 25 | > 25 | 6.11 | – | – | – | – | – | –
20 | Cc1ccn(-c2ncccn2)c(=O)c1C#N [Respiri-1211] | > 50 | > 25 | > 25 | 13 | – | – | – | – | – | –
21 | CC/C(=C(\c1ccccc1)c1ccc(OCCN(C)C)cc1)c1ccccc1 [Tamoxifen, reference compound] | 4.54 | – | – | – | – | – | – | – | – | –

Source: article PMC10913476, “A high-throughput target-based screening approach for the identification and assessment of Mycobacterium tuberculosis mycothione reductase inhibitors” (Microbiology Spectrum, 2024)
